Experimental data published in PubChem BioAssay (NCI).
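All cell lines were grown in 96-well plates and treated with compound for 48 hours. GI50 marks 50% less growth. Definition used: TGI = concentration required for complete inhibition of growth.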

How the values were obtained:
Assay in all cases: NCI-60 cell line screen, 48 h
OVCAR-5 ovarian = test system: OVCAR-5 ovarian
OVCAR-8 ovarian = test system: OVCAR-8 ovarian
UACC-257 melanoma = test system: UACC-257 melanoma
HOP-62 NSCLC = test system: HOP-62 NSCLC
HS 578T breast = test system: HS 578T breast
SK-MEL-5 melanoma = test system: SK-MEL-5 melanoma
T-47D breast = test system: T-47D breast
NCI/ADR-RES ovarian = test system: NCI/ADR-RES ovarian
A549 NSCLC = test system: A549 NSCLC
ACHN renal = test system: ACHN renal
RXF 393 renal = test system: RXF 393 renal
PC-3 prostate = test system: PC-3 prostate
M14 melanoma = test system: M14 melanoma
SF-268 CNS = test system: SF-268 CNS
SK-OV-3 ovarian = test system: SK-OV-3 ovarian
HL-60(TB) leukemia = test system: HL-60(TB) leukemia
HOP-92 NSCLC = test system: HOP-92 NSCLC
BT-549 breast = test system: BT-549 breast
HCT-15 colon = test system: HCT-15 colon
RPMI-8226 leukemia = test system: RPMI-8226 leukemia
MDA-MB-435 = test system: MDA-MB-435
NCI-H460 lung = test system: NCI-H460 lung
UACC-62 melanoma = test system: UACC-62 melanoma
KM12 colon = test system: KM12 colon
HT29 colon = test system: HT29 colon
LOX IMVI melanoma = test system: LOX IMVI melanoma
SNB-75 CNS = test system: SNB-75 CNS
K-562 leukemia = test system: K-562 leukemia
NCI-H226 lung = test system: NCI-H226 lung
SF-295 CNS = test system: SF-295 CNS
SK-MEL-2 melanoma = test system: SK-MEL-2 melanoma
SK-MEL-28 melanoma = test system: SK-MEL-28 melanoma
OVCAR-3 ovarian = test system: OVCAR-3 ovarian
COLO 205 colon = test system: COLO 205 colon
TK-10 renal = test system: TK-10 renal
OVCAR-4 ovarian = test system: OVCAR-4 ovarian
CAKI-1 renal = test system: CAKI-1 renal
SW-620 colon = test system: SW-620 colon
MCF7 breast = test system: MCF7 breast
NCI-H522 lung = test system: NCI-H522 lung
786-0 renal = test system: 786-0 renal
IGROV1 ovarian = test system: IGROV1 ovarian
HCC-2998 colon = test system: HCC-2998 colon
CCRF-CEM leukemia = test system: CCRF-CEM leukemia
SN12C renal = test system: SN12C renal
U251 CNS = test system: U251 CNS
NCI-H23 lung = test system: NCI-H23 lung
SF-539 CNS = test system: SF-539 CNS
EKVX NSCLC = test system: EKVX NSCLC
UO-31 renal = test system: UO-31 renal
MALME-3M melanoma = test system: MALME-3M melanoma
MDA-MB-231 breast = test system: MDA-MB-231 breast
MOLT-4 leukemia = test system: MOLT-4 leukemia
DU-145 prostate = test system: DU-145 prostate
HCT-116 colon = test system: HCT-116 colon
SNB-19 CNS = test system: SNB-19 CNS
SR leukemia = test system: SR leukemia

CC(C)=CCc1c2c(c(O)c3c1O[C@]14C(=C[C@@H]5C[C@H]1C(C)(C)O[C@@]4(C/C=C(/C)C(=O)O)C5=O)C3=O)C=CC(C)(C)O2
GI50 (OVCAR-5 ovarian): 17.6 µM | TGI (OVCAR-5 ovarian): 36.3 µM | GI50 (OVCAR-8 ovarian): 12.7 µM | TGI (OVCAR-8 ovarian): 33.6 µM | GI50 (UACC-257 melanoma): 12.7 µM | TGI (UACC-257 melanoma): 28 µM | GI50 (HOP-62 NSCLC): 15.4 µM | TGI (HOP-62 NSCLC): 31.5 µM | GI50 (HS 578T breast): 17.3 µM | TGI (HS 578T breast): 58.9 µM | GI50 (SK-MEL-5 melanoma): 16.4 µM | TGI (SK-MEL-5 melanoma): 30.7 µM | GI50 (T-47D breast): 10 µM | TGI (T-47D breast): 31.1 µM | GI50 (NCI/ADR-RES ovarian): 21.3 µM | TGI (NCI/ADR-RES ovarian): 75.3 µM | GI50 (A549 NSCLC): 20.9 µM | TGI (A549 NSCLC): 45.6 µM | GI50 (ACHN renal): 12.2 µM | TGI (ACHN renal): 25.7 µM | GI50 (RXF 393 renal): 12.6 µM | TGI (RXF 393 renal): 28.2 µM | GI50 (PC-3 prostate): 14 µM | TGI (PC-3 prostate): 31.1 µM | GI50 (M14 melanoma): 12.8 µM | TGI (M14 melanoma): 29.5 µM | GI50 (SF-268 CNS): 15.4 µM | TGI (SF-268 CNS): 31.4 µM | GI50 (SK-OV-3 ovarian): 24.7 µM | TGI (SK-OV-3 ovarian): 51.3 µM | GI50 (HL-60(TB) leukemia): 12 µM | TGI (HL-60(TB) leukemia): 43.2 µM | GI50 (HOP-92 NSCLC): 11.7 µM | TGI (HOP-92 NSCLC): 26.7 µM | GI50 (BT-549 breast): 14.4 µM | TGI (BT-549 breast): 29.1 µM | GI50 (HCT-15 colon): 6.65 µM | TGI (HCT-15 colon): 33.8 µM | GI50 (RPMI-8226 leukemia): 3.19 µM | TGI (RPMI-8226 leukemia): 13.9 µM | GI50 (MDA-MB-435): 14.3 µM | TGI (MDA-MB-435): 29.5 µM | GI50 (NCI-H460 lung): 15.8 µM | TGI (NCI-H460 lung): 32.1 µM | GI50 (UACC-62 melanoma): 15.3 µM | TGI (UACC-62 melanoma): 32.2 µM | GI50 (KM12 colon): 16.7 µM | TGI (KM12 colon): 33.5 µM | GI50 (HT29 colon): 12.9 µM | TGI (HT29 colon): 32.6 µM | GI50 (LOX IMVI melanoma): 3.51 µM | TGI (LOX IMVI melanoma): 14.4 µM | GI50 (SNB-75 CNS): 13.9 µM | TGI (SNB-75 CNS): 32.4 µM | GI50 (K-562 leukemia): 6.43 µM | TGI (K-562 leukemia): > 100 µM | GI50 (NCI-H226 lung): 21.7 µM | TGI (NCI-H226 lung): 50.2 µM | GI50 (SF-295 CNS): 17.7 µM | TGI (SF-295 CNS): 36.5 µM | GI50 (SK-MEL-2 melanoma): 18.1 µM | TGI (SK-MEL-2 melanoma): 38.5 µM | GI50 (SK-MEL-28 melanoma): 15 µM | TGI (SK-MEL-28 melanoma): 30.1 µM | GI50 (OVCAR-3 ovarian): 10.2 µM | TGI (OVCAR-3 ovarian): 22 µM | GI50 (COLO 205 colon): 17 µM | TGI (COLO 205 colon): 37.9 µM | GI50 (TK-10 renal): 18 µM | TGI (TK-10 renal): 32.3 µM | GI50 (OVCAR-4 ovarian): 15.6 µM | TGI (OVCAR-4 ovarian): 36.8 µM | GI50 (CAKI-1 renal): 16.6 µM | TGI (CAKI-1 renal): 32.1 µM | GI50 (SW-620 colon): 4.06 µM | TGI (SW-620 colon): 17.4 µM | GI50 (MCF7 breast): 5.59 µM | TGI (MCF7 breast): 42.4 µM | GI50 (NCI-H522 lung): 16 µM | TGI (NCI-H522 lung): 30.3 µM | GI50 (786-0 renal): 4.27 µM | TGI (786-0 renal): 16.4 µM | GI50 (IGROV1 ovarian): 4.64 µM | TGI (IGROV1 ovarian): 17.7 µM | GI50 (HCC-2998 colon): 18.5 µM | TGI (HCC-2998 colon): 35.9 µM | GI50 (CCRF-CEM leukemia): 0.987 µM | TGI (CCRF-CEM leukemia): 23.4 µM | GI50 (SN12C renal): 17.5 µM | TGI (SN12C renal): 46.3 µM | GI50 (U251 CNS): 10.4 µM | TGI (U251 CNS): 22.6 µM | GI50 (NCI-H23 lung): 19.6 µM | TGI (NCI-H23 lung): 49.4 µM | GI50 (SF-539 CNS): 16.5 µM | TGI (SF-539 CNS): 35.1 µM | GI50 (EKVX NSCLC): 17.2 µM | TGI (EKVX NSCLC): 41.4 µM | GI50 (UO-31 renal): 9.78 µM | TGI (UO-31 renal): 23.1 µM | GI50 (MALME-3M melanoma): 13.1 µM | TGI (MALME-3M melanoma): 27.8 µM | GI50 (MDA-MB-231 breast): 13.2 µM | TGI (MDA-MB-231 breast): 33.7 µM | GI50 (MOLT-4 leukemia): 14.3 µM | TGI (MOLT-4 leukemia): 63 µM | GI50 (DU-145 prostate): 15.6 µM | TGI (DU-145 prostate): 29 µM | GI50 (HCT-116 colon): 11.4 µM | TGI (HCT-116 colon): 24.2 µM | GI50 (SNB-19 CNS): 17.2 µM | TGI (SNB-19 CNS): 33.6 µM | GI50 (SR leukemia): 3.13 µM | TGI (SR leukemia): > 100 µM
